Data taken from ChEMBL document CHEMBL3886721, “Thienopyrimidine compounds and use thereof” (2016).

Biological target: T1, Gonadotropin-releasing hormone receptor (Macaca fascicularis, UniProt G7P5Q7)
T1 sequence (G7P5Q7 whole entry): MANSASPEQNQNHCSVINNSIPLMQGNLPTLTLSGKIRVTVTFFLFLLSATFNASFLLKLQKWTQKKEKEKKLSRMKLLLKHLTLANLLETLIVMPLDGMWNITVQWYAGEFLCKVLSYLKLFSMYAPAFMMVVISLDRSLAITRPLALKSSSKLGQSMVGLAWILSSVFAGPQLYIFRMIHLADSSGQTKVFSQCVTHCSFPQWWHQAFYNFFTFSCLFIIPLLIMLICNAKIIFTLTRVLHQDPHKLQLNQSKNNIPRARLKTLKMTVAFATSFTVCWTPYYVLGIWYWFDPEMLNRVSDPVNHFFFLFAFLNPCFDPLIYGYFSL
Assay: 125I-Leuprorelin Binding Assay: The monkey and human membrane fractions prepared were diluted with the assay buffer to yield a 200 µg/ml dilution, each of which was then dispensed at 188 μl per tube. To a tube containing the cell membrane fraction of the CHO with monkey GnRH receptors expressed were added 2 μl of a solution of 20 mM compound in 60% DMSO and 10 μl of 38 nM 125I-leuprorelin. To a tube containing the cell membrane fraction of the CHO with human GnRH receptors expressed were added 2 μl of a solution of 2 mM compound in 60% DMSO and 10 μl of 38 nM 125I-leuprorelin. To determine maximum binding quantity, a reaction mixture containing 2 μl of 60% DMSO and 10 μl of 38 nM 125I-leuprorelin was prepared. To determine non-specific binding amount, a reaction mixture containing 2 μl of a solution of 100 μM leuprorelin in 60% DMSO and 10 μl of 38 nM 125I-leuprorelin was prepared.

IC50: 3 nM
Structure (SMILES): CCOCCN(C)Cc1c(-c2ccc(NC(=O)NOC)cc2)sc2c1c(=O)n(-c1ccccn1)c(=O)n2Cc1c(F)cccc1F
